Experiment: Dynamic Vapor Sorption analysis
Type: physicochemical
Conditions: humidity range ~21-70% Relative Humidity, Material recrystallized from isopropanol
Excerpt: The results of the XRPD analysis are shown both in Table I above and in FIG. 2. Dynamic Vapor Sorption analysis of this same materials was also done. […] (2 moles of water per molecule of the Compound would be 6.15% water).

water content (water weight gained): 6-7%
Structure (SMILES): C[C@@H]1CN(Cc2ccc(F)cc2)[C@@H](C)CN1C(=O)c1cc2c(C(=O)C(=O)N(C)C)cn(C)c2cc1Cl.Cl [Compound, (2R-trans)-6-chloro-5-[[4-[(4-fluorophenyl)methyl]-2,5-dimethyl-1-piperazinyl]carbonyl]-N,N, 1-trimethyl-alpha-oxo-1H-indole-3-acetamide monohydrochloride]
